Patent publication US4822790A, “1-Sulfo-2-oxoazetidine derivatives and their production” (Takeda Chemical Industries, Ltd., priority 1980, dated 1989)
Blank lines part the entries; values can stand above or below the molecule they belong to.

Key:
[1] = molecular target: T1, β-lactamase produced by Enterobacter cloacae PN 1282 (Enterobacter cloacae, UniProt P05364); assay: Inhibitor concentration required to inhibit the β-lactamase (cephalosporinase) activity by 50%, micro-iodometric method; type: biochemical; conditions: 0.05M phosphate buffer (pH 7), 30° C., 10 min preincubation, cephalothin 0.1 mM, read-out: I50 (inhibitor concentration required to inhibit the enzyme activity by 50%) (converted)
T1 construct: cephalothin substrate, micro-iodometric
T1 sequence (P05364 21-381): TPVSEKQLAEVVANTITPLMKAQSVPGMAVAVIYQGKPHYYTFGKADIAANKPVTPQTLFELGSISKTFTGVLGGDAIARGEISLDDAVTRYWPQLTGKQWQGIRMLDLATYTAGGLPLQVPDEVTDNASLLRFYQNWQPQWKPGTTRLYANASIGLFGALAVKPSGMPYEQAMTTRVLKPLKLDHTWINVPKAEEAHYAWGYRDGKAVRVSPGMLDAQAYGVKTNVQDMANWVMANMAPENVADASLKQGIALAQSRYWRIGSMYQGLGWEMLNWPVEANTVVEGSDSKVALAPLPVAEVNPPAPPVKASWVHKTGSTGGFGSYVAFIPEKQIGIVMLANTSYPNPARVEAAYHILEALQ
Procedure: "Determination of the inhibitor concentration required to inhibit the enzyme activity by 50%"
The β-lactamase produced by Enterobacter cloacae PN 1282 is used as a typical example of cephalosporinase. The β-lactamase is incubated in 0.05M phosphate buffer (pH 7) with an appropriate dilution of an inhibitor preparation at 30° C. for 10 minutes. Cephalothin is then added in an amount sufficient to produce a final concentration of 0.1 mM, and the enzymatic reaction is allowed to proceed for 10 minutes. The enzyme activity is determined by the micro-iodometric method [Journal of general Microbiology, vol. 33, page 121 (1963)]. Hereinafter, the inhibitor concentration required to inhibit the enzyme activity by 50% is expressed as I50.

[2] = test system: Klebsiella pneumoniae DT; assay: Antibacterial test (MIC), Klebsiella pneumoniae DT; type: cell-based; conditions: for Minimum inhibitory concentration (MIC): medium TSA
Text: (§1) The following is media and compounds employed in the antibacterial test.
(§2) TSA=Trypticase soy agar [Baltimore Biologicals (U.S.A.)]
(§3) B-TSA=Blood trypticase soy agar

[3] = test system: Escherichia coli 0-111; assay: Antibacterial test (MIC), Escherichia coli 0-111; type: cell-based; conditions: medium TSA
Text: as §1, §2, §3

[4] = test system: Pseudomonas morganii IFO 3168; assay: Antibacterial test (MIC), Pseudomonas morganii IFO 3168; type: cell-based; conditions: IFO3168, medium TSA, read-out: Minimum inhibitory concentration (MIC)
Text: as §1, §2, §3

[5] = test system: Proteus vulgaris IFO 3988; assay: Antibacterial test (MIC), Proteus vulgaris IFO 3988; type: cell-based; conditions: for Minimum inhibitory concentration (MIC): medium TSA
Text: as §1, §2, §3

[6] = test system: Proteus morganii IFO 3168; assay: Antibacterial test (MIC), Proteus morganii IFO 3168; type: cell-based; conditions: medium TSA
Text: as §1, §2, §3

[7] = test system: Serratia marcescens IFO 12648; assay: Antibacterial test (MIC), Serratia marcescens IFO 12648; type: cell-based; conditions: medium TSA
Text: as §1, §2, §3

[8] = test system: Bordetella bronchiseptica Sagami; assay: Antibacterial test (MIC), Bordetella bronchiseptica Sagami; type: cell-based; conditions: medium B-TSA
Text: as §1, §2, §3

[9] = test system: Enterobacter cloacae IFO 12937; assay: Antibacterial test (MIC), Enterobacter cloacae IFO 12937; type: cell-based; conditions: medium TSA
Text: as §1, §2, §3

[10] = test system: Corynebacterium diphtheriae Toronto; assay: Antibacterial test (MIC), Corynebacterium diphtheriae Toronto; type: cell-based; conditions: medium B-TSA
Text: as §1, §2, §3

[11] = test system: Streptococcus mitis America; assay: Antibacterial test (MIC), Streptococcus mitis America; type: cell-based; conditions: medium B-TSA
Text: as §1, §2, §3

[12] = test system: Staphylococcus aureus FDA209P; assay: Antibacterial test (MIC), Staphylococcus aureus FDA209P; type: cell-based
Text: as §1, §2, §3

[13] = test system: Escherichia coli T-7; assay: Antibacterial test (MIC), Escherichia coli T-7; type: cell-based; conditions: medium TSA
Text: as §1, §2, §3

[14] = test system: Streptococcus pyogenes S-8; assay: Antibacterial test (MIC), Streptococcus pyogenes S-8; type: cell-based; conditions: medium B-TSA
Text: as §1, §2, §3

[15] = test system: Escherichia coli NIHJ JC-2; assay: Antibacterial test (MIC), Escherichia coli NIHJ JC-2; type: cell-based; conditions: medium TSA
Text: as §1, §2, §3

[16] = test system: Streptococcus faecium IFO 3128; assay: Antibacterial test (MIC), Streptococcus faecium IFO 3128; type: cell-based; conditions: medium B-TSA
Text: as §1, §2, §3

[17] = test system: Streptococcus pneumoniae Type I; assay: Antibacterial test (MIC), Streptococcus pneumoniae Type I; type: cell-based; conditions: medium B-TSA
Text: as §1, §2, §3

[18] = test system: Staphylococcus aureus 1840; assay: Antibacterial test (MIC), Staphylococcus aureus 1840; type: cell-based; conditions: medium TSA
Text: as §1, §2, §3

[19] = test system: Pseudomonas aeruginosa U 31; assay: Antibacterial test (MIC), Pseudomonas aeruginosa U 31; type: cell-based; conditions: medium TSA
Text: as §1, §2, §3

[20] = test system: Acinetobacter calcoaceticus IFO 13006; assay: Antibacterial test (MIC), Acinetobacter calcoaceticus IFO 13006; type: cell-based; conditions: medium TSA
Text: as §1, §2, §3

[21] = test system: Staphylococcus aureus 308A-1; assay: Antibacterial test (MIC), Staphylococcus aureus 308A-1; type: cell-based; conditions: medium TSA
Text: as §1, §2, §3

[22] = test system: Streptococcus pyogenes E-14; assay: Antibacterial test (MIC), Streptococcus pyogenes E-14; type: cell-based; conditions: medium B-TSA
Text: as §1, §2, §3

[23] = test system: Pseudomonas aeruginosa IFO 3455; assay: Antibacterial test (MIC), Pseudomonas aeruginosa IFO 3455; type: cell-based; conditions: medium TSA
Text: as §1, §2, §3

[24] = test system: Proteus mirabilis IFO 3849; assay: Antibacterial test (MIC), Proteus mirabilis IFO 3849; type: cell-based; conditions: medium TSA
Text: as §1, §2, §3

[25] = test system: Citrobacter freundii IFO 12681; assay: Antibacterial test (MIC), Citrobacter freundii IFO 12681; type: cell-based; conditions: medium TSA
Text: as §1, §2, §3

[26] = test system: Candida albicans TA; assay: Antibacterial test (MIC), Candida albicans TA; type: cell-based; conditions: medium TSA
Text: as §1, §2, §3

SMILES: CON=C(C(=O)N[C@@H]1C(=O)N(S(=O)(=O)O)[C@@H]1SC)c1csc(N)n1
IC50 [1]: 0.759 µM

SMILES: CCN1CCN(C(=O)N[C@@H](C(=O)NC2(OC)CN(S(=O)(=O)O)C2=O)c2ccccc2)C(=O)C1=O (single isomer, unassigned) [Compound C, Sodium 3-[D(-)-N-(4-ethyl-2,3-dioxo-1-piperazinocarbonyl)phenylglycinamido]-3-methoxy-2-oxoazetidine-1-sulfonate]
MIC ([2]; Klebsiella pneumoniae, read-out: Minimum inhibitory concentration (MIC)): 12.5 µg/mL
MIC ([3]; Escherichia coli, 0111, read-out: Minimum inhibitory concentration (MIC)): 12.5 µg/mL
MIC [4]: > 100 µg/mL
MIC ([5]; Proteus vulgaris, IFO3988, read-out: Minimum inhibitory concentration (MIC)): 12.5 µg/mL

SMILES: CCN1CCN(C(=O)N[C@@H](C(=O)NC2CN(S(=O)(=O)[O-])C2=O)c2cccs2)C(=O)C1=O.[Na+] (stereo partly drawn) [Compound F, Sodium 3-[D-2-(4-ethyl-2,3-dioxo-1-piperazinocarboxamido)-2-thienylacetamido]-2-oxoazetidine-1-sulfonate]
Minimum inhibitory concentration (MIC) [6]: 12.5 µg/mL
Minimum inhibitory concentration (MIC) [7]: 1.56 µg/mL
Minimum inhibitory concentration (MIC) [8]: > 100 µg/mL
Minimum inhibitory concentration (MIC) [9]: 50 µg/mL
Minimum inhibitory concentration (MIC) [2]: 0.2 µg/mL
Minimum inhibitory concentration (MIC) [10]: 0.78 µg/mL
Minimum inhibitory concentration (MIC) [3]: 0.2 µg/mL
Minimum inhibitory concentration (MIC) [11]: 25 µg/mL
Minimum inhibitory concentration (MIC) ([12]; medium B-TSA): 6.25 µg/mL
Minimum inhibitory concentration (MIC) ([12]; medium TSA): 6.25 µg/mL
Minimum inhibitory concentration (MIC) [13]: > 100 µg/mL
Minimum inhibitory concentration (MIC) [5]: < 0.1 µg/mL
Minimum inhibitory concentration (MIC) [14]: 3.13 µg/mL
Minimum inhibitory concentration (MIC) [15]: 0.78 µg/mL
Minimum inhibitory concentration (MIC) [16]: > 100 µg/mL
Minimum inhibitory concentration (MIC) [17]: 6.25 µg/mL
Minimum inhibitory concentration (MIC) [18]: 25 µg/mL
Minimum inhibitory concentration (MIC) [19]: > 100 µg/mL
Minimum inhibitory concentration (MIC) [20]: 25 µg/mL
Minimum inhibitory concentration (MIC) [21]: 6.25 µg/mL
Minimum inhibitory concentration (MIC) [22]: 3.13 µg/mL
Minimum inhibitory concentration (MIC) [23]: 6.25 µg/mL
Minimum inhibitory concentration (MIC) [24]: 0.78 µg/mL
Minimum inhibitory concentration (MIC) [25]: 1.56 µg/mL
Minimum inhibitory concentration (MIC) [26]: > 100 µg/mL

SMILES: O=C(NC1CN(S(=O)(=O)[O-])C1=O)C(NC(=O)N1CCN(N=Cc2ccco2)C1=O)c1cccs1.[Na+] (stereo not shown) [Compound L, Sodium 3-[2-[(2-oxo-3-furfurylideneaminoimidazolidin-1-yl)-carboxamido]-2-thienylacetamido]-2-oxoazetidine-1-sulfonate]
Minimum inhibitory concentration (MIC) [6]: 12.5 µg/mL
Minimum inhibitory concentration (MIC) [7]: 1.56 µg/mL
Minimum inhibitory concentration (MIC) [8]: > 100 µg/mL
Minimum inhibitory concentration (MIC) [9]: 25 µg/mL
Minimum inhibitory concentration (MIC) [2]: < 0.1 µg/mL
Minimum inhibitory concentration (MIC) [10]: 1.56 µg/mL
Minimum inhibitory concentration (MIC) [3]: < 0.1 µg/mL
Minimum inhibitory concentration (MIC) [11]: 6.25 µg/mL
Minimum inhibitory concentration (MIC) ([12]; medium B-TSA): 6.25 µg/mL
Minimum inhibitory concentration (MIC) ([12]; medium TSA): 6.25 µg/mL
Minimum inhibitory concentration (MIC) [13]: > 100 µg/mL
Minimum inhibitory concentration (MIC) [5]: 0.2 µg/mL
Minimum inhibitory concentration (MIC) [14]: 0.78 µg/mL
Minimum inhibitory concentration (MIC) [15]: 1.56 µg/mL
Minimum inhibitory concentration (MIC) [16]: > 100 µg/mL
Minimum inhibitory concentration (MIC) [17]: 1.56 µg/mL
Minimum inhibitory concentration (MIC) [18]: 25 µg/mL
Minimum inhibitory concentration (MIC) [19]: > 100 µg/mL
Minimum inhibitory concentration (MIC) [20]: 50 µg/mL
Minimum inhibitory concentration (MIC) [21]: 3.13 µg/mL
Minimum inhibitory concentration (MIC) [22]: 0.78 µg/mL
Minimum inhibitory concentration (MIC) [23]: 3.13 µg/mL
Minimum inhibitory concentration (MIC) [24]: 0.78 µg/mL
Minimum inhibitory concentration (MIC) [25]: 1.56 µg/mL
Minimum inhibitory concentration (MIC) [26]: > 100 µg/mL

More lines, now with the values ahead:

IC50 [1]: 0.0965 µM
SMILES: CS[C@@H]1[C@H](NC(=O)c2c(-c3c(Cl)cccc3Cl)noc2C)C(=O)N1S(=O)(=O)O

IC50 [1]: 0.406 µM
SMILES: CS[C@@H]1[C@H](NC(=O)C(=NOC(C)(C)C(=O)O)c2csc(N)n2)C(=O)N1S(=O)(=O)O

IC50 [1]: 0.059 µM
SMILES: CON=C(C(=O)N[C@@H]1C(=O)N(S(=O)(=O)O)[C@H]1Sc1ccccc1)c1csc(N)n1
